The values that follow come from PubChem BioAssay (NCI).

Several values for one entry are separate records, joined by “and”; a condition that tells them apart may be missing. Equal entries are not always repeated.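 Following 48 hours of exposure in 96-well plates, responses at five concentrations were used to interpolate endpoints linearly. Here, GI50 denotes the concentration required for 50% inhibition of growth. Definition used: TGI = concentration required for complete inhibition of growth.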

Assay in all cases: NCI tumour cell line growth inhibition, 48 h
In assay [1] the test system is A549 NSCLC.
For assay [2], the system named is BT-549 breast.
In assay [3] the test system is SK-MEL-2 melanoma.
Assay [4] relates to NCI-H460 lung.
Assay [5] relates to HL-60(TB) leukemia.
For assay [6], the system named is SF-539 CNS.
Assay [7] has as its system SN12C renal.
The test system of assay [8] is OVCAR-3 ovarian.
Assay [9] relates to MDA-MB-435.
The subject of assay [10] is TK-10 renal.

With `CCCCCCCCCCCCCCNC(=O)Nc1ccc(Cl)c(Cl)c1`, the GI50 is 3.34 µM in assay [1]; 1.87 µM in assay [2]; 1.93 µM in assay [3]; 3.4 µM in [4]; 2.59 µM in assay [5]; 4.07 µM in assay [6]. In addition, the GI50 in assay [7] was 2.85 µM; in assay [8], 2.47 µM; in [9] it was 2.82 µM; in [10], 2.34 µM. The TGI in [1] is greater than 100 µM; in assay [2], 6.16 µM; in assay [3] it was 5.69 µM; in [4], greater than 100 µM; in assay [5], greater than 40.1 µM; in [6], greater than 100 µM. The TGI in assay [7] is greater than 100 µM; in assay [8] it was 6.31 µM; in assay [9] it was 8.33 µM; in assay [10], 7.4 µM.

In the case of `Cc1noc(NC(=O)Nc2ccccc2F)c1C#N`, the TGI in assay [1] was greater than 52.1 µM; in [2] it was greater than 100 µM; in [3], greater than 54.9 µM; in assay [4], greater than 34.2 µM; in assay [5], greater than 100 µM; in assay [6], greater than 100 µM. The TGI was greater than 48 µM in [7], greater than 100 µM in [8], greater than 100 µM in assay [9] and greater than 45.1 µM in [10].

As for `COc1ccccc1Oc1nccc(-c2c(-c3ccc(F)cc3)ncn2C2CCNCC2)n1`, the GI50 in assay [1] is greater than 25 µM; in assay [2], greater than 23.6 µM; in assay [3], greater than 25 µM; in assay [4] it was greater than 25 µM; in assay [5], greater than 23.3 µM; in [6], greater than 25 µM. Also, the GI50 in [7] is greater than 25 µM; in assay [8] it was greater than 25 µM; in [9], greater than 24.1 µM; in [10], greater than 25 µM. For the same compound, the TGI in assay [1], in assay [2], in assay [3], in [4], in assay [5] and in assay [6] was greater than 25 µM in each case. The TGI in assay [7], in assay [8], in assay [9] and in assay [10] was greater than 25 µM in each case.

With `COCCOC1=C(Cl)C(=O)c2ccccc2C1=O`, the GI50 was 4.33 µM in [1]; 3.2 µM in assay [2]; 2.71 µM in assay [3]; 3.34 µM in assay [4]; 1.58 µM in assay [5]; 2.52 µM in [6]. Besides, the GI50 is 3.91 µM in [7], 1.66 µM in assay [8], 3.08 µM in [9] and 2.83 µM in assay [10]. The TGI was found to be 21.8 µM in [1]; 10.6 µM in [2]; 9.35 µM in assay [3]; 17.3 µM in assay [4]; 4.87 µM in assay [5]; 5.79 µM in assay [6]. Moreover, the TGI in assay [7] turned out to be 16.5 µM; in assay [8], 3.06 µM; in assay [9], 10.4 µM; in [10] it was 10.8 µM.

Consider `CC(=O)Oc1c(C(=O)[O-])cc(C(C)C)cc1C(C)C.CC(=O)Oc1c(C(=O)[O-])cc(C(C)C)cc1C(C)C.CC(=O)Oc1c(C(=O)[O-])cc(C(C)C)cc1C(C)C.CC(=O)Oc1c(C(=O)[O-])cc(C(C)C)cc1C(C)C.[Cu+2].[Cu+2]`, for which the GI50 in assay [1] was 32.4 µM; in [2], 16.7 µM; in assay [3], 40.8 µM; in [4], 34.8 µM; in assay [5], 22.7 µM; in assay [6], 72.3 µM. Besides, the GI50 in assay [7] was 19.8 µM; in assay [8], 27.3 µM; in assay [9] it was 3.18 µM; in assay [10], 33.7 µM. For the same compound, the TGI in assay [1] is greater than 100 µM; in assay [2], 38.5 µM; in assay [3] it was greater than 100 µM; in assay [4] it was greater than 100 µM; in assay [5] it was 81.9 µM; in assay [6] it was greater than 100 µM. The TGI in [7] is 65.9 µM; in [8], 65.9 µM; in [9] it was 9.16 µM; in assay [10], greater than 100 µM.

With `Fc1ccc(NC(c2ccc(F)cc2)C2CCN(CCCCc3ccccc3)CC2)cc1` (configuration not stated), the GI50 in assay [1] is 1.91 µM; in assay [2], 1.55 µM; in assay [3], 1.81 µM; in [4], 1.71 µM; in assay [5], 1.24 µM; in [6] it was 1.71 µM. Moreover, the GI50 in [7] was 1.77 µM; in assay [8], 1.57 µM; in [9], 1.6 µM; in assay [10], 2.07 µM. In addition, the TGI in assay [1] stood at 3.73 µM; in [2] it was 2.97 µM; in assay [3], 3.54 µM; in assay [4], 3.09 µM; in assay [5] it was 3.54 µM; in assay [6], 3.1 µM. The TGI in assay [7] turned out to be 3.37 µM; in [8], 2.91 µM; in assay [9], 2.95 µM; in assay [10], 5.34 µM.

Turning to `NC(N)=NCCCC(NCc1c2ccccc2nc2ccccc12)C(=O)O` (configuration not stated), the TGI in assay [1] was greater than 100 µM; in [2], greater than 100 µM; in assay [3], greater than 100 µM; in [4] it was greater than 100 µM; in assay [5], 44.1 µM; in [6] it was greater than 100 µM. The TGI in assay [7], in [8], in assay [9] and in [10] was greater than 100 µM throughout.

On to `CCCCCCCCCCCC[C@@H](O)[C@H]1CC[C@H]([C@H](O)CC[C@H](O)[C@@H]2CC[C@@H](CCCCCCCC3=C[C@H](C)OC3=O)O2)O1`, for which the GI50 was 2.2 µM in assay [1]; 0.00376 µM in [2]; greater than 50 µM in assay [4]; greater than 50 µM in [5]; greater than 50 µM in [7]; 2.78 µM in assay [8]. Besides, the GI50 in [9] was 1.49 µM; in assay [10] it was 1.24 µM. Further, the TGI is greater than 50 µM in [1]; greater than 50 µM in assay [3]; greater than 50 µM in assay [4]; 5.85 µM and > 50 µM in assay [5]; greater than 50 µM in assay [6]; greater than 50 µM in assay [7]. Also, the TGI in assay [8], in [9] and in [10] was greater than 50 µM throughout.

For the compound `CCOC(=O)/C(=C\c1cccc(C)c1)C(C)=O`, the TGI in assay [1] is greater than 100 µM; in assay [2] it was 22.7 µM; in [3], 26.1 µM; in [4], 51.6 µM; in assay [5] it was 32.2 µM; in [6] it was 40.3 µM. Moreover, the TGI was 41.7 µM in assay [7], 28.1 µM in assay [8], 45.4 µM in [9] and 44.3 µM in [10].

Take `CSc1nc2nc(-c3ccccc3)c(C)c-2c2n1C(C)C(=O)N2` (configuration not stated): the GI50 in [1] is 40.1 µM; in [2] it was 50.3 µM; in [3], 30.1 µM; in assay [4] it was 32.4 µM; in assay [5], 36.4 µM; in assay [6], 86.7 µM. Besides, the GI50 is 52.6 µM in [7], 26.8 µM in assay [8], 32.9 µM in assay [9] and 38.1 µM in [10]. The TGI in assay [1] was greater than 100 µM; in [2], greater than 100 µM; in assay [3], 78.1 µM; in [4], greater than 100 µM; in assay [5], greater than 100 µM; in [6], greater than 100 µM. For the same compound, the TGI in assay [7] was greater than 100 µM; in assay [8], 81.8 µM; in [9], greater than 100 µM; in [10] it was greater than 100 µM.

With `Cc1cc(Br)c(NC(=O)c2c(-c3c(Cl)cccc3Cl)noc2C)c(Br)c1`, the GI50 in assay [1], in [2], in assay [3], in [4], in [5] and in [6] was greater than 100 µM in each case. Moreover, the GI50 in assay [7], in [8], in [9] and in assay [10] was greater than 100 µM in each case. The TGI in assay [1], in assay [2], in [3], in [4], in [5] and in assay [6] was greater than 100 µM throughout. Besides, the TGI in assay [7], in [8], in assay [9] and in [10] was greater than 100 µM throughout.

With `CCN(CC)c1ccc2nc3ccc(=[N+](CC)CC)cc-3oc2c1`, the GI50 was 0.826 µM in assay [1]; 2.32 µM in assay [2]; 1.36 µM in [3]; 0.108 µM in [4]; 0.0247 µM in assay [5]; 0.286 µM in assay [6]. The GI50 was 0.153 µM in assay [7], 0.0318 µM in [8], 0.401 µM in [9] and 0.474 µM in assay [10]. Besides, the TGI in assay [1] was greater than 100 µM; in [2] it was 21 µM; in assay [3], 3.99 µM; in assay [4] it was 8.12 µM; in [5] it was 1.2 µM; in [6], 18.1 µM. Moreover, the TGI in assay [7] was 15.2 µM; in [8], 0.362 µM; in [9], 1.89 µM; in assay [10], 3.57 µM.
